Key:
[1] = ref [46],[47]; cited from earlier work
[2] = tested on: HL-60 (human leukemia cell line); assay: CCK8 cell viability assay, HL-60; format: cell-based; details: 72 h, read-out: Proliferation inhibition IC50 ± SD, HL-60
Procedure: (§1) The CCK8 (#AC11L054, Life ilab, Shanghai, China) method was used to detect the cells’ proliferation. Cells were seeded into a 96-well culture plate at an appropriate density. […] IC50 values were estimated using the four-parameter method. Each set of experiments was repeated independently three times with three replicate wells per concentration each time.

[3] = tested on: HCT-116 (human colon cancer cell line); assay: CCK8 cell viability assay, HCT-116; format: cell-based; details: 72 h, read-out: Proliferation inhibition IC50 ± SD, HCT-116
Procedure: as §1

[4] = tested on: Ac-tubulin in RPMI-8226 cells; assay: Western blot of Ac-tubulin; format: cell-based, human; details: 24 h; for Ac-α-tubulin protein expression: tested concentrations
Procedure: (§2) RPMI-8226 cells were seeded in six-well plates and treated with compounds for 24 h. Cells were lysed with 1× SDS loading buffer (50 mM Tris pH 6.8, 100 mM DTT, 2% SDS, 0.1% bromophenol blue, 10% glycerol), and then centrifuged at 12,000 rpm for 5 min at 4 °C. Cell extracts were probed with antibodies Ac-Tubulin (#5335T, CST, Kansas City, MO, USA), α-Tubulin (#2144S, CST, Kansas City, MO, USA), AcH3 (#ab39139, active motif, Carlsbad, CA, USA), Histone H3 (#17168-1-AP, Proteintech, Chicago, IL, USA), GAPDH (#60004-1-1g, Proteintech, Chicago, IL, USA), Goat Anti-Mouse IgG, H&L Chain Specific Peroxidase Conjugate (#401215, Calbiochem, Darmstadt, Germany), Goat Anti-Rabbit IgG, or H&L Chain Specific Peroxidase Conjugate (#401353, Calbiochem, Germany), then detected using Bio-RAD power pal Basic (#041BR66615, BioRad Laboratories, Hercules, CA, USA), Bio-RAD Mini-PROTEAN Tetrade System (#IEC/EN 61010-1, BioRad Laboratories, Hercules, CA, USA), or Bio-RAD Chemi Touch Imagin (BioRad Laboratories, Hercules, CA, USA).

[5] = biological target: T1, HDAC6 (Homo sapiens, UniProt Q9UBN7); assay: HDAC inhibition assay (HTRF), HDAC6; format: biochemical; details: read-out: IC50 ± SD, HDAC6
T1 construct: purchased BPS #50006
T1 sequence (Q9UBN7 1-1215): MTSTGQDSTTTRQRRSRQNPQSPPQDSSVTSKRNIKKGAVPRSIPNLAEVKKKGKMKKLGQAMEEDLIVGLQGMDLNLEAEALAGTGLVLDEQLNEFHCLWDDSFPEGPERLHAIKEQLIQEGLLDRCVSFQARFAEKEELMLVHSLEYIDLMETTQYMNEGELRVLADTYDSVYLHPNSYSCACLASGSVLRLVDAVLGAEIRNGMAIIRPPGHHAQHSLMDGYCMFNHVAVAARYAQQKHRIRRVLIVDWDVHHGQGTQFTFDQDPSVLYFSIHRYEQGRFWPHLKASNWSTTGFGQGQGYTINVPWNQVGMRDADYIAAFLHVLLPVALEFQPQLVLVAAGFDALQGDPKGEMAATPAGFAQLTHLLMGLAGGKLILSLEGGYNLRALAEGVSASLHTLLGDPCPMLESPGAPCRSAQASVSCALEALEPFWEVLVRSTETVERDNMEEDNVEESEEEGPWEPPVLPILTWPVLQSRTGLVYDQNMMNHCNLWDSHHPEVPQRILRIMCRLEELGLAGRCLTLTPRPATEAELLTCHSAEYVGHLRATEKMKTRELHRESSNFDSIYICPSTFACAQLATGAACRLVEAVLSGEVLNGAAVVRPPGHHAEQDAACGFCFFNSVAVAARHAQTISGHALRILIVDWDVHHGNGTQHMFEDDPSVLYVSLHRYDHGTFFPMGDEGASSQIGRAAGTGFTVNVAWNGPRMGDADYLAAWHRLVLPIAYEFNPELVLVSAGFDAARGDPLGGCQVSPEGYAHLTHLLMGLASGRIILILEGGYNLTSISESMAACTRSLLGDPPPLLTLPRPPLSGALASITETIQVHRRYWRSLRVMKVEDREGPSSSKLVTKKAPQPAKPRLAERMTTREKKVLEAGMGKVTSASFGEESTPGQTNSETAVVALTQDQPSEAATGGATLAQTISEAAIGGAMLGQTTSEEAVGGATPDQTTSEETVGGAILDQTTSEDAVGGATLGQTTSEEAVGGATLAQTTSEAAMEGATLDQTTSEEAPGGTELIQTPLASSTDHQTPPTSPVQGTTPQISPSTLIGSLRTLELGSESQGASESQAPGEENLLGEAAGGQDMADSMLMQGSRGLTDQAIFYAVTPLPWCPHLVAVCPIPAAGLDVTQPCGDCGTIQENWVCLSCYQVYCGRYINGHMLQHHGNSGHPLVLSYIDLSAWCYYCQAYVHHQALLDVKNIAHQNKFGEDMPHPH
Procedure: (§3) Then, SA-XL665 (#610SAXLG, Cisbio, Bedford, MA, USA) and anti-H3K9me0-Eu(K) (#61KB0KAD, Cisbio, USA) were added. […] The IC50 value of the compounds was calculated using GraphPad 7.0 software. Each set of experiments was independently repeated twice, with two replicate wells per concentration each time.

[6] = biological target: T2, HDAC1 (Homo sapiens, UniProt Q13547); assay: HDAC inhibition assay (HTRF), HDAC1; format: biochemical; details: read-out: IC50 ± SD, HDAC1;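 also: HTRF detection with streptavidin-XL665 plus Eu(K)-labelled anti-H3K9me0 antibody, two independent runs with duplicate wells per concentration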
T2 construct: purchased BPS #50001
Procedure: as §3

[7] = biological target: HDAC3 (Homo sapiens, UniProt O15379); assay: HDAC inhibition assay (HTRF), HDAC3;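 also: HTRF detection with streptavidin-XL665 and a Eu cryptate-labelled antibody against unmodified H3K9, two independent runs with duplicate wells at each concentration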
Procedure: as §3

[8] = tested on: RPMI-8226 cells; assay: Apoptosis assay, Annexin V-FITC/PI flow cytometry; format: cell-based, human; details: 1, 3 and 10 μM, 48 h
Source text: Annexin V-FITC and PI double-staining detection kits were used to determine apoptotic cells. […] Data results were obtained from three independent experiments.

[9] = tested on: Ac-histone H3 in RPMI-8226 cells; assay: Western blot of Ac-histone H3; format: cell-based, human; details: 24 h; for Histone H3 acetylation level: 10 μM
Procedure: as §2

[10] = tested on: RPMI-8226 (human myeloma cell line); assay: CCK8 cell viability assay, RPMI-8226; format: cell-based; details: 72 h, read-out: Proliferation inhibition IC50 ± SD, RPMI-8226
Procedure: as §1

[11] = Pharmacokinetic study in male ICR mice; format: in vivo; details: mouse, plasma
Procedure: Specific procedures were referred to the reported method. ICR mice (n = 6) were fasted for 12 h before administration and remained fasting for 2 h. The animal room environment was controlled (target conditions: temperature 18 to 29 °C, relative humidity 30 to 70%). Temperature and relative humidity were monitored daily. An electronic time-controlled lighting system was used to provide a 12 h light/12 h dark cycle. Compound 20 was administered at doses of 5 mg/kg (po) and 1 mg/kg (iv). The time points for blood sample collection were 0.25, 0.50, 1.00, 2.00, 4.00, 8.00, and 24 h post dose for the po-administrated group, and the time points were 0.05, 0.25, 0.75, 2.00, 4.00, 8.00, and 24 h for the iv group. For each point, 20 μL of plasma were transferred into a clean tube, 200 μL of MeOH/ACN (50/50, v/v) containing IS were added, and they were thoroughly vortexed by a vortex mixer for 1 min. The mixture was centrifuged at 15000 rpm for 5 min, and then 20 μL of supernatant was mixed with 20 μL of water for the analysis by LC-MS.

Chain of HDAC3 (O15379 whole entry): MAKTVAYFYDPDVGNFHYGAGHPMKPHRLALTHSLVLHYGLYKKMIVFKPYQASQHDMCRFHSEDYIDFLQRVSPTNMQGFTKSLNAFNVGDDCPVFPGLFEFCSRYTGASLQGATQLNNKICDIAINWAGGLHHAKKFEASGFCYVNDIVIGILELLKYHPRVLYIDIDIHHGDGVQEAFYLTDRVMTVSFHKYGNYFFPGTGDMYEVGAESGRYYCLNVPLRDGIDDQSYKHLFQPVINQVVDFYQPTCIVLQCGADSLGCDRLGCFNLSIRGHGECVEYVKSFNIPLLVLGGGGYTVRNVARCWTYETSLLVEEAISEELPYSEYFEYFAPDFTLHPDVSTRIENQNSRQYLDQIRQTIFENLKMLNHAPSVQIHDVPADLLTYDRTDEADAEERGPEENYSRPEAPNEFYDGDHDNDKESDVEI
Chain of HDAC3 (Q9Y618 395-489 partner limits assumed): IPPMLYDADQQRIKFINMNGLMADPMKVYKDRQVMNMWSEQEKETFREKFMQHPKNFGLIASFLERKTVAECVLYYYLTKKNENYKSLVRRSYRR
T2 sequence (Q13547 whole entry): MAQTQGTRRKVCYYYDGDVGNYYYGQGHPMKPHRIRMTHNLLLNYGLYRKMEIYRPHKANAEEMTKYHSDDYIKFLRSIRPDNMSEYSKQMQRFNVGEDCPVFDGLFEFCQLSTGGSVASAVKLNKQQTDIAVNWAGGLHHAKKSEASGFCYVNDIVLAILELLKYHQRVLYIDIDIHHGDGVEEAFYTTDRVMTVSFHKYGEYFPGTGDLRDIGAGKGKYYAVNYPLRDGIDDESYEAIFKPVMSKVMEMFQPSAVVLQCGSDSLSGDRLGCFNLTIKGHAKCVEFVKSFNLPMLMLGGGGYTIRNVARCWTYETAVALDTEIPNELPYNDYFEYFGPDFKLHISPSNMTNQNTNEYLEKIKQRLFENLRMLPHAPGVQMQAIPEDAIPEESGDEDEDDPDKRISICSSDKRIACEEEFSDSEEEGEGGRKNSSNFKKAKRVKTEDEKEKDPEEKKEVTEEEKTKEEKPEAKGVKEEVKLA

| SMILES | F% (oral bioavailability) [1] [%] | IC50 [2] [µM] | IC50 [3] [µM] | IC50 [5] [µM] | IC50 [6] [µM] | IC50 [7] [µM] | Promotion of RPMI-8226 cell apoptosis [8] | IC50 [10] [µM] | Ac-α-tubulin protein expression [4] | Histone H3 acetylation level [9] | other results |
| --- | --- | --- | --- | --- | --- | --- | --- | --- | --- | --- | --- |
| Cc1[nH]c2ccccc2c1CCNCc1ccc(/C=C/C(=O)NO)cc1 [panobinostat] | 4.62 |  |  |  |  |  |  |  |  |  |  |
| O=C(CCCCCCC(=O)Nc1ccccc1)NO [SAHA, vorinostat] | 8.33 |  |  |  |  |  |  |  |  |  |  |
| CC(=O)c1cccn1Cc1ccc(/C=C/C(=O)NO)cc1 [Compound 14, (E)-3-(4-((2-acetyl-1H-pyrrol-1-yl)methyl)phenyl)-N-hydroxyacrylamide] |  | 8.16 ± 1.96 | 8.63 ± 0.82 | 0.0337 ± 0.0148 | 0.8 ± 0.0504 | 0.457 ± 0.173 | promote RPMI-8226 cell apoptosis in a dose-dependent manner | 8.85 ± 2.3 |  |  | Acetylated tubulin compared to compound 5c ([4]; same concentration): induced more acetylated tubulin; Acetylated histone H3 compared to compound 5c ([9]; same concentration): induced more acetylated tubulin and acetylated histone H3 |
| O=C(CCCCCCn1cccc1C(=O)C(F)(F)F)NO [Compound 5c, N-hydroxy-7-(2-(2,2,2-trifluoroacetyl)-1H-pyrrol-1-yl)heptanamide] |  | 8.56 ± 1.47 | 12.3 ± 2.2 | 0.00422 ± 0.0001 | 0.0368 ± 0.00587 | 0.0266 ± 0.0019 | promote RPMI-8226 cell apoptosis in a dose-dependent manner | 11.9 ± 1.58 |  |  |  |
| CC(=O)c1cccn1CCc1ccc(C(=O)Nc2ccccc2N)cc1 [Compound 20, 4-(2-(2-Acetyl-1H-pyrrol-1-yl)ethyl)-N-(2-aminophenyl)benzamide] |  | 4.71 ± 0.24 | 9.08 ± 0.58 | > 10 | 0.441 ± 0.0782 | 1.08 ± 0.229 | promote RPMI-8226 cell apoptosis in a dose-dependent manner | 2.89 ± 0.43 | no discernible effect | increased histone H3 acetylation levels comparable to MS-275 | AUC(0-inf) ([11]; iv, 1 mg/kg): 163 ± 3 ng·h/mL; AUC(0-t) ([11]; iv, 1 mg/kg): 163 ± 3 ng·h/mL; MRT inf ([11]; iv, 1 mg/kg): 10.9 ± 0.36 min; clearance ([11]; iv, 1 mg/kg): 102 ± 2 mL/min/kg; half-life ([11]; iv, 1 mg/kg): 11.5 ± 0.72 min; Vd ([11]; iv, 1 mg/kg, read-out: Vss): 1.11 ± 0.052 L/kg; AUC(0-inf) ([11]; po, 5 mg/kg): 47.2 ± 26.6 ng·h/mL; AUC(0-t) ([11]; po, 5 mg/kg): 40.7 ± 21.8 ng·h/mL; Cmax ([11]; po, 5 mg/kg): 48.3 ± 31.1 ng/mL; MRT inf ([11]; po, 5 mg/kg): 110 ± 25.2 min; Tmax ([11]; po, 5 mg/kg): 20 ± 8.64 min; half-life ([11]; po, 5 mg/kg): 93 ± 30.6 min; bioavailability ([11]; po, 5 mg/kg, read-out: F (oral bioavailability)): 5% |
| CC(=O)c1cccn1Cc1cn(CCc2ccc(C(=O)Nc3ccccc3N)cc2)nn1 [Compound 19a, 4-(2-(4-((2-Acetyl-1H-pyrrol-1-yl)methyl)-1H-1,2,3-triazol-1-yl)ethyl)-N-(2-aminophenyl)benzamide] |  | 8.32 ± 0.37 | 13.2 ± 2.48 | > 10 | 1.1 ± 0.144 | 1.39 ± 0.373 | promote RPMI-8226 cell apoptosis in a dose-dependent manner | 10 ± 0.52 | no discernible effect | increased histone H3 acetylation levels comparable to MS-275 |  |
